Measured values published in publication PMC5337940, “Sansanmycin natural product analogues as potent and selective anti-mycobacterials that inhibit lipid I biosynthesis” (Nature Communications, 2017).
Values after ≈ are worked out from the molar mass of the structure shown. Read-outs that look alike come from different tables or passages of the source.

Key:
Mtb MurX [1] = molecular target: T1, Mtb MurX (Mycobacterium tuberculosis, UniProt P9WMW7); assay: biochemical
Mtb H37Rv = assay: Resazurin reduction microplate assay, growth inhibition of Mtb H37Rv; type: cell-based, Mycobacterium tuberculosis
HEK293 cells = assay: Cytotoxicity counter-screen, resazurin reduction microplate assay; type: cell-based; settings: Homo sapiens, tested up to 200 μM, read-out: MIC50 (HEK293)
Mtb MurX [2] = molecular target: T1, Mtb MurX; assay: Radiochemical (TLC) MurX-MurG coupled inhibition assay in Mtb mc2 6230 membranes; type: biochemical; settings: for inhibition at 0.2 µM: 200 nM inhibitor, decrease in lipid II formation
in vitro [3] = type: in vitro ADME; settings: plasma
From the text: Human blood from nonidentifiable volunteer donors was sourced from the Australian Red Cross Blood Service under a supply agreement approved by the Monash Human Research Ethics Committee. Mouse blood was collected in-house under tissue harvesting protocols approved by the Monash Institute of Pharmaceutical Sciences Animal Ethics Committee. Pooled human and Swiss outbred mouse plasma samples were thawed and spiked with test compound solutions prepared in DMSO/acetonitrile/water (20:40:40) to provide a final compound concentration of 1,000 ng ml^−1 and final DMSO and acetonitrile concentrations of 0.2% and 0.4% (v/v), respectively. Plasma was vortex mixed and aliquots (50 μl) were transferred to fresh microcentrifuge tubes and incubated at 37 °C. At various time points over the 6 h incubation period, duplicate plasma samples were removed and immediately snap-frozen in dry ice. All samples were stored frozen at −80 °C until analysis by LC–MS. Samples were processed by protein precipitation using a two-fold excess of acetonitrile followed by centrifugation. Analysis of the supernate was conducted using a Waters (Milford, MA) Acquity UPLC coupled to a Waters Micromass Quattro Premier mass spectrometer operated in positive electrospray ionization mode with multiple reaction monitoring. The cone voltage was 45 V, collision energy was 30, 30 and 40 V for 25, 36 and 37, respectively, and m/z transitions were 782.30>126.06 (25), 826.32>170.16 (36) and 888.39>126.06 (37). Processed samples (3 μl) were injected onto a Supelco Ascentis Express RP Amide column (50 × 2.1 mm, 2.7 μm) and analytes eluted using a water/acetonitrile (each containing 0.05% formic acid) gradient over 4 min with a flow rate was 0.4 ml min^−1. Sample concentrations were quantitated by comparison to a calibration curve prepared in blank human or mouse plasma.

in vitro [4] = type: in vitro ADME; settings: microsomes; for Average half-life: 0.5 μM; for half-life at 0.5 μM: Average half-life
Experimental: The metabolic stability was assessed by incubating each test compound (0.5 μM) in duplicate with human and mouse liver microsomes (XenoTech, Kansas City, KS) at 37 °C and 0.4 mg ml^−1 microsomal protein. The metabolic reaction was initiated by the addition of an NADPH-regenerating system and quenched at various time points over a 60 min incubation period by the addition of acetonitrile containing diazepam as internal standard. Control samples (containing no NADPH) were included and quenched at 2, 30 and 60 min to monitor for potential degradation in the absence of cofactor. Samples were centrifuged and the supernatant analysed by LCMS. Analysis was conducted using a Waters Acquity UPLC coupled to a Waters Xevo G2 QTOF mass spectrometer operated in positive electrospray ionization MS^E mode with a cone voltage of 30 V. Samples (5 μl) were injected onto an Ascentis Express Amide column (50 × 2.1 mm, 2.7 μm) and eluted using a water/acetonitrile (both containing 0.05% formic acid) gradient over 4 min at a flow rate of 0.4 ml min^−1. Degradation rate half-lives and in vitro intrinsic clearance values were determined from the first order degradation profiles.

Mtb H37Ra in THP-1 cells = assay: Intracellular assay, Mtb-infected THP-1 macrophages, CFU count; settings: read-out: IC50 intracellular anti-mycobacterial activity; THP-1 macrophages infected with Mtb (H37Ra), average of 2 independent experiments
H37Rv = tested on: H37Rv; design: method as in Xie et al. 14, 15; settings: isolated natural products; ref Xie et al. 14, 15; cited from earlier work
[5] = Mycobacterium tuberculosis, H37RV, Mtb H37Rv, read-out: MIC50 against Mtb
[6] = Mycobacterium tuberculosis, H37RV, average of two independent experiments, each in triplicate, read-out: MIC50 Mtb H37Rv
[7] = average of two independent experiments, each in triplicate

T1 sequence (P9WMW7 whole entry): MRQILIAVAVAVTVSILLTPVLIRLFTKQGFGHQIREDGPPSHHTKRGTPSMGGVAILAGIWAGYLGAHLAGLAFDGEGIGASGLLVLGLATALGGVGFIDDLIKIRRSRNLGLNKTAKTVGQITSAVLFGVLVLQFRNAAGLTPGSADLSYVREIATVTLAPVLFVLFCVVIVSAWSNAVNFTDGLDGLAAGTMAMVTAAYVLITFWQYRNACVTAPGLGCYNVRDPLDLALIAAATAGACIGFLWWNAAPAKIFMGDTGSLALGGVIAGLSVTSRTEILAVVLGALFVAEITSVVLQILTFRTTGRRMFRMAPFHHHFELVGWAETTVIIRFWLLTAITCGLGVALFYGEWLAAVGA

## tunicamycin [reference compound]
Mtb MurX [1]; read-out: IC50 Mtb MurX, fluorescence assay
  IC50: 189 nM

## C[C@@H]([C@H](NC(=O)[C@H](CC1CCCCC1)NC(=O)N[C@@H](Cc1c[nH]c2ccccc12)C(=O)O)C(=O)NC[C@H]1C[C@@H](O)[C@H](n2ccc(=O)[nH]c2=O)O1)N(C)C(=O)CN [Compound 25]
Mtb H37Rv; [5]
  MIC50: 0.08 µM (≈ 0.0625 µg/mL)
Mtb H37Rv; [6]
  MIC50: 0.08 ± 0.02 µM (≈ 0.0625 µg/mL)
HEK293 cells
  CC50: > 200000 nM
Mtb MurX [2]
  IC50: 54 nM
  inhibition at 0.2 µM: 100%
Mtb MurX [1]
  IC50: 30 nM
In vitro [3]; Swiss outbred, mouse
  half-life at 1000 ng/ml: > 7 h
In vitro [3]; human
  half-life at 1000 ng/ml: > 7 h
In vitro [4]; human
  microsomal CLint at 0.5 μM: < 7 µL/min/mg
  Average half-life: > 2.67 h
  half-life at 0.5 μM: > 4.12 h
In vitro [4]; mouse
  microsomal CLint at 0.5 μM: < 7 µL/min/mg
  Average half-life: > 2.67 h
  half-life at 0.5 μM: > 4.12 h
Mtb H37Ra in THP-1 cells
  IC50: 1570 nM

## C[C@@H]([C@H](NC(=O)[C@H](CC1CCCCC1)NC(=O)N[C@@H](Cc1c[nH]c2ccccc12)C(=O)O)C(=O)NC[C@H]1C[C@@H](O)[C@H](n2ccc(=O)[nH]c2=O)O1)N(C)C(=O)[C@@H](N)Cc1cccc(O)c1 [Compound 37]
Mtb H37Rv; [5]
  MIC50: 0.037 µM (≈ 0.0329 µg/mL)
Mtb H37Rv; [6]
  MIC50: 0.037 ± 0.06 µM (≈ 0.0329 µg/mL)
HEK293 cells
  CC50: > 200000 nM
Mtb MurX [2]
  IC50: 41 nM
  inhibition at 0.2 µM: 100%
Mtb MurX [1]
  IC50: 16 nM
In vitro [3]; Swiss outbred, mouse
  half-life at 1000 ng/ml: > 7 h
In vitro [3]; human
  half-life at 1000 ng/ml: > 7 h
In vitro [4]; human
  microsomal CLint at 0.5 μM: 10 µL/min/mg
  Average half-life: > 2.67 h
  half-life at 0.5 μM: 2.9 h
In vitro [4]; mouse
  microsomal CLint at 0.5 μM: 7 µL/min/mg
  Average half-life: > 2.67 h
  half-life at 0.5 μM: 3.88 h
Mtb H37Ra in THP-1 cells
  IC50: 110 nM

## C[C@@H]([C@H](NC(=O)[C@H](Cc1ccc2ccccc2c1)NC(=O)N[C@@H](Cc1c[nH]c2ccccc12)C(=O)O)C(=O)NC[C@H]1C[C@@H](O)[C@H](n2ccc(=O)[nH]c2=O)O1)N(C)C(=O)CN [Compound 36]
Mtb H37Rv; [5]
  MIC50: 0.18 µM (≈ 0.149 µg/mL)
Mtb H37Rv; [6]
  MIC50: 0.18 ± 0.02 µM (≈ 0.149 µg/mL)
HEK293 cells
  CC50: > 200000 nM
Mtb MurX [2]
  IC50: 48 nM
  inhibition at 0.2 µM: 100%
Mtb MurX [1]
  IC50: 14 nM
In vitro [3]; Swiss outbred, mouse
  half-life at 1000 ng/ml: > 7 h
In vitro [3]; human
  half-life at 1000 ng/ml: > 7 h
In vitro [4]; human
  microsomal CLint at 0.5 μM: < 7 µL/min/mg
  Average half-life: > 2.67 h
  half-life at 0.5 μM: > 4.12 h
In vitro [4]; mouse
  microsomal CLint at 0.5 μM: 10 µL/min/mg
  Average half-life: > 2.67 h
  half-life at 0.5 μM: 2.77 h
Mtb H37Ra in THP-1 cells
  IC50: 4330 nM

## C[C@@H]([C@H](NC(=O)[C@H](CC[S+](C)[O-])NC(=O)N[C@@H](Cc1c[nH]c2ccccc12)C(=O)O)C(=O)N/C=C1/C[C@@H](O)[C@H](n2ccc(=O)[nH]c2=O)O1)N(C)C(=O)[C@@H](N)c1cccc(O)c1 (some centres unmarked) [Compound 3, Sansanmycin C]
H37Rv
  MIC (H37Rv): > 36.3 µM

## CSCC[C@H](NC(=O)N[C@@H](Cc1c[nH]c2ccccc12)C(=O)O)C(=O)N[C@H](C(=O)N/C=C1/C[C@@H](O)[C@H](n2ccc(=O)[nH]c2=O)O1)[C@H](C)N(C)C(=O)[C@@H](N)c1cccc(O)c1 [Compound 1, Sansanmycin A]
H37Rv
  MIC (H37Rv): 18.5 µM (≈ 15.7 µg/mL)

## C[C@@H]([C@H](NC(=O)[C@H](Cc1ccc(C(F)(F)F)cc1)NC(=O)N[C@@H](Cc1c[nH]c2ccccc12)C(=O)O)C(=O)NC[C@H]1C[C@@H](O)[C@H](n2ccc(=O)[nH]c2=O)O1)N(C)C(=O)CN [Compound 30]
Mtb H37Rv; [6]
  MIC50: 0.2 ± 0.06 µM (≈ 0.169 µg/mL)
HEK293 cells
  CC50: > 200000 nM
Mtb MurX [2]
  inhibition at 0.2 µM: 100%

## CC(C)C[C@H](NC(=O)N[C@@H](Cc1c[nH]c2ccccc12)C(=O)O)C(=O)N[C@H](C(=O)N/C=C1/C[C@@H](O)[C@H](n2ccc(=O)[nH]c2=O)O1)[C@H](C)N(C)C(=O)[C@@H](N)c1cccc(O)c1 [Compound 2, Sansanmycin B]
H37Rv
  MIC (H37Rv): 9.5 µM (≈ 7.9 µg/mL)

## CC(C)C[C@H](NC(=O)N[C@@H](Cc1c[nH]c2ccccc12)C(=O)O)C(=O)N[C@H](C(=O)NC[C@H]1C[C@@H](O)[C@H](n2ccc(=O)[nH]c2=O)O1)[C@H](C)N(C)C(=O)[C@@H](N)C1CCCCC1 [Compound 11]
Mtb H37Rv; [6]
  MIC50: 1.1 ± 0.84 µM (≈ 0.906 µg/mL)
Mtb H37Rv; [7]
  MIC50 Mtb H37Rv: 0.95 to 1.35 µM
HEK293 cells
  CC50: > 200000 nM
Mtb MurX [2]
  inhibition at 0.2 µM: 14%

## CC[C@@H](C)[C@H](NC(=O)N[C@@H](Cc1c[nH]c2ccccc12)C(=O)O)C(=O)N[C@H](C(=O)NC[C@H]1C[C@@H](O)[C@H](n2ccc(=O)[nH]c2=O)O1)[C@H](C)N(C)C(=O)CN [Compound 21]
Mtb H37Rv; [6]
  MIC50: 0.93 ± 0.11 µM (≈ 0.69 µg/mL)
HEK293 cells
  CC50: > 200000 nM
Mtb MurX [2]
  inhibition at 0.2 µM: 46%

## CC(C)C[C@H](NC(=O)N[C@@H](Cc1c[nH]c2ccccc12)C(=O)O)C(=O)N[C@H](C(=O)NC[C@H]1C[C@@H](O)[C@H](n2ccc(=O)[nH]c2=O)O1)[C@H](C)N(C)C(=O)CN [Compound 12]
Mtb H37Rv; [6]
  MIC50: 0.63 ± 0.17 µM (≈ 0.467 µg/mL)
Mtb H37Rv; average of two independent experiments, each in triplicate, read-out: MIC50 Mtb H37Rv
  MIC50: 0.63 µM (≈ 0.467 µg/mL)
HEK293 cells
  CC50: > 200000 nM
Mtb MurX [2]
  inhibition at 0.2 µM: 9%

## CC(C)C[C@H](NC(=O)N[C@@H](Cc1c[nH]c2ccccc12)C(=O)O)C(=O)N[C@H](C(=O)NC[C@H]1C[C@@H](O)[C@H](n2ccc(=O)[nH]c2=O)O1)[C@H](C)N(C)C(=O)[C@@H](N)Cc1ccccc1 [Compound 7]
Mtb H37Rv; [6]
  MIC50: 4.05 ± 0.63 µM (≈ 3.37 µg/mL)
HEK293 cells
  CC50: > 200000 nM
Mtb MurX [2]
  inhibition at 0.2 µM: 27%

## C[C@@H]([C@H](NC(=O)[C@H](Cc1ccc(O)cc1)NC(=O)N[C@@H](Cc1c[nH]c2ccccc12)C(=O)O)C(=O)NC[C@H]1C[C@@H](O)[C@H](n2ccc(=O)[nH]c2=O)O1)N(C)C(=O)CN [Compound 31]
Mtb H37Rv; [6]
  MIC50: 0.44 to 0.98 µM (≈ 0.348 to 0.776 µg/mL)
Mtb H37Rv; [7]
  MIC50 Mtb H37Rv: 0.52 ± 0.02 µM (≈ 0.412 µg/mL)
HEK293 cells
  CC50: > 200000 nM
Mtb MurX [2]
  inhibition at 0.2 µM: 40%

## CC(C)C[C@H](NC(=O)N[C@@H](Cc1c[nH]c2ccccc12)C(=O)O)C(=O)N[C@H](C(=O)NC[C@H]1C[C@@H](O)[C@H](n2ccc(=O)[nH]c2=O)O1)[C@H](C)N(C)C(=O)[C@@H](N)CCCN [Compound 16]
Mtb H37Rv; [6]
  MIC50: 0.95 ± 0.07 µM (≈ 0.759 µg/mL)
Mtb H37Rv; [7]
  MIC50 Mtb H37Rv: 0.95 to 1.35 µM
HEK293 cells
  CC50: > 200000 nM
Mtb MurX [2]
  inhibition at 0.2 µM: 5%
